Experimental data taken from patent publication US12668803B2, “Glypican-3-specific modified aptamer and use thereof” (APTAMER SCIENCES INC., priority 2019, dated 2026).

Tests used:
GPC3 = GPC3 (Homo sapiens, UniProt P51654); assay: Protein binding assay with 32P-labeled aptamers (Zorbax resin, filter plate, phosphorimager); details: FIG. 1
Procedure: To select an aptamer which is the most specific to GPC3 from 7 aptamer libraries expected to be specific to GPC3 [2428-12-09, 2428-12-10, 2428-12-11, 2424-30-01, 2424-30-05, 2424-30-06, 2424-30-07, all 40-mer], a binding assay was performed through […] labeling. In detail, to […] RI-labeled and unlabeled oligonucleotide region at the oligonucleotide 3′-end of each candidate aptamer sequence, 0.25 μL of α-32P, 0.25 μL of DNA nucleotidylexotransferase (terminal transferase), 1 μL of 10×NEB buffer (New England Biolabs, USA), 1 μL of CoCl2, 7.5 μL of a template (aptamer sequence) (total 10 μL) were added to a plate, which was then sealed with foil, and then incubated at 37° C. for 30 min (enzyme incubation). After incubation at 70° C. for 10 min (enzyme incubation), each of the incubated samples was diluted with 30 μL of distilled water. The lower part of the Microspin G-50 column was removed and a tube was put thereon. After spinning at 800 rcf for 1 min, the tube was removed. The sample was put in a resin, followed by spinning at room temperature and 800 rcf for 2 min.
The aptamers, from which RI-labeled and unlabeled oligonucleotide ends were removed, were diluted with 100 μL of 1×SB18T0.05 to 20,000 cpm. The aptamers were heated at 95° C. for 5 min, and subsequently, cooled at 37° C. for 15 min. 100 nM of protein (GPC3) was subjected to 4.64-fold serial dilution, and each 30 μL of a total of 8 points was added to each well. 200 μL of 1×SB18T0.05 was added to the aptamers, of which heating and cooling were completed, and then 30 μL thereof was added to each well for a total volume of 60 μL. 2 μL of the aptamer was dropped as an input control on a nylon filter, followed by incubation at 37° C. for 30 min. During incubation, 30 μL of 1×SB18T0.05 was added to a filter plate in advance. After incubation, 5.5 μL of Zorbax resin was added, and allowed to react at 1400 rpm for 1 min. […] The screen was analyzed, and the binding degree according to each protein concentration was derived (percentage bound value).

[1] = test system: squamous cell carcinoma cells (A431); assay: Cell cycle analysis (propidium iodide, FACS); format: cell-based; details: 4 hr treatment, FIG. 27
Procedure: (§1) To analyze the effects of combi 4 and combi 5 bound with three or five gemcitabines on the cell cycle of hepatoma cells, cell cycle analysis was performed. In detail, Hep3B, HepG2, and A431 cells were seeded in a 6-well plate at a density of 1×10^6/ml, and cultured using a DMEM medium containing 10% FBS and 1% antibiotics (penicillin/streptomycin) under conditions of 5% CO2 and 37° C., respectively. Next day, 100 μM of the modified aptamer stock was mixed with 5×SB18 buffer to prepare the aptamer at a concentration of 80 μM, and heated at 95° C. for 5 min, and then cooled at room temperature for 15 min or more. The medium was removed from the cultured cells, and replaced by a serum-free medium, and cultured under conditions of 37° C. and 5% CO2 for 1 hr. The serum-free medium was removed, and then the cells were washed with 2 ml of 1×PBS. 2 ml of KRPH buffer was added, and cultured under conditions of 37° C. and 5% CO2 for 1 hr. The aptamer was added, and cultured under conditions of 37° C. and 5% CO2 for 4 hr. The KRPH buffer was removed, and 2 ml of 1×PBS was added thereto to perform washing, and then PBS was removed. 2 ml of 1×PBS was added, and cells were scraped using a scraper, and collected in FACs tubes, followed by centrifugation at 4° C. and 2000 rpm for 4 minutes. 1/500-fold diluted RNAase A and propidium iodide diluted with PBS at a concentration of 50 μg/ml were added to the FACs tubes at a volume of 500 μL, followed by pipetting. Incubation was performed at room temperature for 30 min while blocking the light, and then cell cycle was measured.

[2] = test system: GPC3-expressing hepatoma cells; assay: Cell-killing effect (CCK-8) of gemcitabine-bound combi aptamers; format: cell-based; details: FIG. 23 and FIG. 24
Procedure: In detail, Huh-7 cells (ATCC, Rockville, MD, USA) were seeded in a 96-well plate at a density of 1×10^4/mL, and cultured using a DMEM (Gibco, Grand Island, NY, USA) medium containing 10% FBS (Gibco, Grand Island, NY, USA) and 1% antibiotics (penicillin/streptomycin) under conditions of 5% CO2 and 37° C. Next day, the aptamer stock (100 μM) was mixed with 5×SB18 buffer to prepare the stock at a concentration of 80 μM, and heated at 95° C. for 5 min, and then cooled at room temperature for 15 min or more. The medium was removed from the cultured cells, and 100 μL of a serum-free medium was added thereto, and cultured under conditions of 37° C. and 5% CO2 for 1 hr. The serum-free medium was removed, and then the cells were washed with 100 μL of 1×PBS. 100 μL of KRPH buffer was added, and cultured under conditions of 37° C. and 5% CO2 for 1 hr. The aptamer was diluted with KRPH buffer to 2-fold of the desired concentration, and added to a 96-well plate at 1× concentration, and cultured under conditions of 37° C. and 5% CO2 for 4 hr. After treatment with the aptamer, the KRPH buffer was removed, and then 100 μL of culture medium was added and cultured under conditions of 37° C. and 5% CO2 for […]. 6 days later, 10 μL of a kit solution of CCK-8 (Cell Counting Kit-8) was added to each well, and then cultured under conditions of 37° C. and 5% CO2 for 3 hr. Cell death levels were examined at […] using a microplate reader.

[3] = test system: hepatoma cells (Hep3B, HepG2); assay: Cell cycle analysis (propidium iodide, FACS); format: cell-based; details: 4 hr treatment, FIGS. 25 and 26
Procedure: as §1

GPC3, sequence (P51654 25-554): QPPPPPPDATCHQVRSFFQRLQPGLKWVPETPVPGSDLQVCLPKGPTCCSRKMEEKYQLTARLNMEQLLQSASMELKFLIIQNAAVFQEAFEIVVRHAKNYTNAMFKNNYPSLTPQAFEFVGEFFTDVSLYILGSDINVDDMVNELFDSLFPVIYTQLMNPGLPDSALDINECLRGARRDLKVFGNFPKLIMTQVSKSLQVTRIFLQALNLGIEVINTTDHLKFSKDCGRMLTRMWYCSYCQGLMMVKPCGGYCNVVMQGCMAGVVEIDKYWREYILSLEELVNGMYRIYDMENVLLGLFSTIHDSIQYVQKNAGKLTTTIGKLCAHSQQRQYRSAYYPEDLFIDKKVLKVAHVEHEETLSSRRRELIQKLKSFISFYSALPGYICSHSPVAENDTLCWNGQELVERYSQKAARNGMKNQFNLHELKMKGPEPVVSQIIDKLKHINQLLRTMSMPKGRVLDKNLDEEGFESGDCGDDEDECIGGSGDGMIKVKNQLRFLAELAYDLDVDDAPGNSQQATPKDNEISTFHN

Compound | binding ability among the candidates (GPC3; 7 candidate 40-mer aptamers) | maximum binding capacity (Bmax) (GPC3) | Kd (GPC3; read-out: dissociation constant (Kd)) [nM] | cell cycle arrest [1] | concentration from which a cell-killing effect is shown [2] [nM] | cell cycle arrest [3]
12-10: SEQ ID NO: 1, 40-mer GPC3-specific aptamer with BzdU bases (GGGAAGnGAAnGCGnnGAAnnAnGnCCCnnCAGnCAnCAC; BzdU bases, as printed in the source, key not given here) | most excellent binding ability | 0.79 | 1.5 | – | – | –
Nc1ccn([C@@H]2O[C@H](CO)[C@@H](O)C2(F)F)c(=O)n1 [gemcitabine, 2′,2′-difluoro 2′-deoxycytidine, reference compound] | – | – | – | no cell cycle arrest | – | –
Combi 4 G(5) (DNA GNGAANGCGNNGAANNANGYSSSNNCAGNCANSAS; 5 gemcitabines, 2'-OMe, 2'-F, BzdU, 3' idT; Combi 4 G(5); (1)..(1) G is 2-O-Methoxy-DNA.; (2)..(2) n is BzdU.; (3)..(3) G is 2-O-Methoxy-DNA.; (4)..(4) A is 2-Fluorine-DNA.; (5)..(5) A is 2-Fluorine-DNA.; (6)..(6) n is BzdU.; (10)..(10) n is BzdU.; (11)..(11) n is BzdU.; (12)..(12) G is 2-Fluorine-DNA.; (13)..(13) A is 2-Fluorine-DNA.; (14)..(14) A is 2-Fluorine-DNA.; (15)..(15) n is BzdU.; (16)..(16) n is BzdU.; (17)..(17) A is 2-Fluorine-) | – | – | – | no cell cycle arrest | 100 | arrested hepatoma cells at the G1/S phase
Combi 5 G(5) (DNA GNGAANGCGNNGAANNANWYSSSNNCAGNCANSAS; 5 gemcitabines, 2'-OMe, BzdU; Combi 5 G(5); (1)..(1) G is 2-O-Methoxy-DNA.; (2)..(2) n is BzdU.; (3)..(3) G is 2-O-Methoxy-DNA.; (4)..(4) A is 2-Fluorine-DNA.; (5)..(5) A is 2-Fluorine-DNA.; (6)..(6) n is BzdU.; (10)..(10) n is BzdU.; (11)..(11) n is BzdU.; (12)..(12) G is 2-Fluorine-DNA.; (13)..(13) A is 2-Fluorine-DNA.; (14)..(14) A is 2-O-Methoxy-DNA.; (15)..(15) n is BzdU.; (16)..(16) n is BzdU.; (17)..(17) A is 2-O-Methox) | – | – | – | no cell cycle arrest | 100 | arrested hepatoma cells at the G1/S phase
Combi 11 G(3) (DNA GNGAANGCGNNGAANNANWYSSSNNCAGNCANCAC; gemcitabines, 2'-MOE, 2'-F, BzdU, 3' idT; Combi 11 G(3); (1)..(1) G is 2-Methoxyethyl-DNA.; (2)..(2) n is BzdU.; (3)..(3) G is 2-Methoxyethyl-DNA.; (4)..(4) A is 2-Fluorine-DNA.; (5)..(5) A is 2-Fluorine-DNA.; (6)..(6) n is BzdU.; (10)..(10) n is BzdU.; (11)..(11) n is BzdU.; (12)..(12) G is 2-Fluorine-DNA.; (13)..(13) A is 2-Fluorine-DNA.; (14)..(14) A is 2-Methoxyethyl-DNA.; (15)..(15) n is BzdU.; (16)..(16) n is BzdU.; (17)..(17) A is) | – | – | – | – | 200 | –
